Test results published in US20020137929A1, “1 - (3-heterocyclylphenyl) isothiourea, -isourea, -guanidine and -amidine herbicidal agents” (Intellectual Property Department, BASF Aktiengesellschaft, priority 1998, published 2002).

How the values were obtained:
CASOB (Sicklepod) = test: Postemergence herbicidal evaluation; assay type: in vivo, Cassia obtusifolia; settings: postemergence
Method in brief: (§1)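 Visual 0–9 rating versus control (stand, vigor, malformation, size, chlorosis, overall appearance), taken four to five weeks post-spray. Two-week-old seedlings received roughly 0.0156–0.500 kg/ha active in acetone/water (50/50) with 0.5% TWEEN 20 via nozzle at 40 psi.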

[1] = tested on: CHEAL (Lambsquarters, Common); test: Postemergence herbicidal evaluation; assay type: in vivo, Chenopodium album; settings: postemergence
Method in brief: as §1

GALAP (Galium) = test: Postemergence herbicidal evaluation; assay type: in vivo, Galium aparine; settings: postemergence
Method in brief: as §1

ORYSAT (Rice, Tebonnet) [2] = test: Postemergence herbicidal evaluation; assay type: in vivo, Oryza sativa, (L.) Tebonnet; settings: postemergence
Method in brief: as §1

ZEAMX (Corn, Field) = test: Postemergence herbicidal evaluation; assay type: in vivo, Zea mays; settings: postemergence
Method in brief: as §1

AMBEL (Ragweed, Common) = test: Preemergence herbicidal evaluation; assay type: in vivo, Ambrosia artemisifolia; settings: preemergence, rated 4-5 weeks after treatment, 0-9 scale
Method in brief: (§2)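 Test compound, dissolved in aqueous acetone, was sprayed over planted soil cups at an equivalent of about 0.0156 to 0.500 kg/ha; seeds had been mixed with potting soil. Greenhouse growth followed, with visual 0-9 scoring of injury at four to five weeks.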

SETVI (Foxtail, Green) = test: Preemergence herbicidal evaluation; assay type: in vivo, Setaria viridis; settings: preemergence, rated 4-5 weeks after treatment, 0-9 scale
Method in brief: as §2

[3] = tested on: GLXMAW (Soybean, Williams); test: Preemergence herbicidal evaluation; assay type: in vivo, Glycine max, (L.) Merr. cv Williams; settings: preemergence, rated 4-5 weeks after treatment, 0-9 scale
Method in brief: as §2

ORYSAT (Rice, Tebonnet) [4] = test: Preemergence herbicidal evaluation; assay type: in vivo, Oryza sativa, (L.) Tebonnet; settings: preemergence, rated 4-5 weeks after treatment, 0-9 scale
Method in brief: as §2

CYPSE (Flatsedge) [5] = test: Preemergence weed control under flooded paddy conditions; assay type: in vivo, Cyperus serotinus; settings: rated 3-4 weeks after treatment
Method in brief: (§3)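 First, seeds or propagules go into the top 0.5 cm of silt loam; next, water is held 1.5 to 3 cm over the soil; then compound (50/50 acetone/water) is pipetted into it at about 0.0313 to 0.500 kg/ha; finally plants are rated visually 0-9 after three to four weeks.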

MOOVA (Monochoria) = test: as above; assay type: in vivo, Monochoria vaginalis; settings: rated 3-4 weeks after treatment
Method in brief: as §3

CYPIR (Rice Flatsedge) = test: Postemergence weed control under flooded paddy conditions; assay type: in vivo, Cyperus iria; settings: postemergence weeds, rated 3 to 4 weeks after treatment
Method in brief: (§4)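 Injury ratings (0–9 scale covering stand, vigor, malformation, size, chlorosis and overall appearance versus control) were made three to four weeks after treatment. Test material, about 0.0313 to 0.500 kg/ha a.i. in 50/50 v/v aqueous/acetone, was added to flood water 1.5 to 3 cm deep over 3 to 5 cm weeds and 1.5 to 2.5 leaf rice.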

CYPSE (Flatsedge) [6] = test: as above; assay type: in vivo, Cyperus serotinus; settings: postemergence weeds, rated 3 to 4 weeks after treatment
Method in brief: as §4

[7] = tested on: SAGPY (Arrowhead (Pygmaea)); test: as above; assay type: in vivo, Sagittaria pygmaea; settings: postemergence weeds, rated 3 to 4 weeks after treatment
Method in brief: as §4

SMILES: CN1C(=O)C(CC(=O)OCCF)SC1=Nc1cc(-n2c(=O)cc(C(F)(F)F)n(C)c2=O)c(F)cc1Cl (stereo not drawn) [Compound 93, 2-Fluoroethyl 2-{{2-chloro-5-[3,6-dihydro-3-methyl-2,6-dioxo-4-(trifluoromethyl)-1(2H)-pyrimidinyl]-4-fluorophenyl}imino}-3-methyl-4-oxo-5-thiazolidineacetate]
- CASOB herbicidal rating (CASOB (Sicklepod); rate 0.0158 kg/ha): 0.0
- CASOB herbicidal rating (CASOB (Sicklepod); rate 0.0315 kg/ha): 1.0
- CASOB herbicidal rating (CASOB (Sicklepod); rate 0.0630 kg/ha): 2.0
- CHEAL herbicidal rating ([1]; rate 0.0158 kg/ha): 4.0
- CHEAL herbicidal rating ([1]; rate 0.0315 kg/ha): 4.0
- CHEAL herbicidal rating ([1]; rate 0.0630 kg/ha): 9.0
- GALAP herbicidal rating (GALAP (Galium); rate 0.0158 kg/ha): 0.0
- GALAP herbicidal rating (GALAP (Galium); rate 0.0315 kg/ha): 5.0
- GALAP herbicidal rating (GALAP (Galium); rate 0.0630 kg/ha): 6.0
- ORYSAT herbicidal rating (ORYSAT (Rice, Tebonnet) [2]; rate 0.0158 kg/ha): 1.0
- ORYSAT herbicidal rating (ORYSAT (Rice, Tebonnet) [2]; rate 0.0315 kg/ha): 4.0
- ORYSAT herbicidal rating (ORYSAT (Rice, Tebonnet) [2]; rate 0.0630 kg/ha): 6.0
- ZEAMX herbicidal rating (ZEAMX (Corn, Field); rate 0.0158 kg/ha): 7.5
- ZEAMX herbicidal rating (ZEAMX (Corn, Field); rate 0.0315 kg/ha): 7.5
- ZEAMX herbicidal rating (ZEAMX (Corn, Field); rate 0.0630 kg/ha): 8.0
- AMBEL rating (AMBEL (Ragweed, Common); 0.0313 kg/ha): 0.0
- AMBEL rating (AMBEL (Ragweed, Common); 0.0625 kg/ha): 0.0
- AMBEL rating (AMBEL (Ragweed, Common); 0.1250 kg/ha): 9.0
- AMBEL rating (AMBEL (Ragweed, Common); 0.2500 kg/ha): 9.0
- SETVI rating (SETVI (Foxtail, Green); 0.0313 kg/ha): 0.0
- SETVI rating (SETVI (Foxtail, Green); 0.0625 kg/ha): 0.0
- SETVI rating (SETVI (Foxtail, Green); 0.1250 kg/ha): 0.0
- SETVI rating (SETVI (Foxtail, Green); 0.2500 kg/ha): 9.0
- GLXMAW rating ([3]; 0.0313 kg/ha): 0.0
- GLXMAW rating ([3]; 0.0625 kg/ha): 0.0
- GLXMAW rating ([3]; 0.1250 kg/ha): 4.0
- GLXMAW rating ([3]; 0.2500 kg/ha): 8.0
- ORYSAT rating (ORYSAT (Rice, Tebonnet) [4]; 0.0313 kg/ha): 0.0
- ORYSAT rating (ORYSAT (Rice, Tebonnet) [4]; 0.0625 kg/ha): 0.0
- ORYSAT rating (ORYSAT (Rice, Tebonnet) [4]; 0.1250 kg/ha): 2.0
- ORYSAT rating (ORYSAT (Rice, Tebonnet) [4]; 0.2500 kg/ha): 4.0
- CYPSE herbicidal effect rating (CYPSE (Flatsedge) [5]; 0.0313 kg/ha): 0.0
- CYPSE herbicidal effect rating (CYPSE (Flatsedge) [5]; 0.0625 kg/ha): 0.0
- CYPSE herbicidal effect rating (CYPSE (Flatsedge) [5]; 0.1250 kg/ha): 5.0
- CYPSE herbicidal effect rating (CYPSE (Flatsedge) [5]; 0.2500 kg/ha): 9.0
- MOOVA herbicidal effect rating (MOOVA (Monochoria); 0.0313 kg/ha): 9.0
- MOOVA herbicidal effect rating (MOOVA (Monochoria); 0.0625 kg/ha): 9.0
- MOOVA herbicidal effect rating (MOOVA (Monochoria); 0.1250 kg/ha): 9.0
- MOOVA herbicidal effect rating (MOOVA (Monochoria); 0.2500 kg/ha): 9.0
- Herbicidal rating CYPIR (CYPIR (Rice Flatsedge); Rate 0.0313 kg/ha): 0.0
- Herbicidal rating CYPIR (CYPIR (Rice Flatsedge); Rate 0.0625 kg/ha): 0.0
- Herbicidal rating CYPIR (CYPIR (Rice Flatsedge); Rate 0.1250 kg/ha): 0.0
- Herbicidal rating CYPIR (CYPIR (Rice Flatsedge); Rate 0.2500 kg/ha): 0.0
- Herbicidal rating CYPSE (CYPSE (Flatsedge) [6]; Rate 0.0313 kg/ha): 0.0
- Herbicidal rating CYPSE (CYPSE (Flatsedge) [6]; Rate 0.0625 kg/ha): 0.0
- Herbicidal rating CYPSE (CYPSE (Flatsedge) [6]; Rate 0.1250 kg/ha): 5.0
- Herbicidal rating CYPSE (CYPSE (Flatsedge) [6]; Rate 0.2500 kg/ha): 9.0
- Herbicidal rating SAGPY ([7]; Rate 0.0313 kg/ha): 0.0
- Herbicidal rating SAGPY ([7]; Rate 0.0625 kg/ha): 0.0
- Herbicidal rating SAGPY ([7]; Rate 0.1250 kg/ha): 3.0
- Herbicidal rating SAGPY ([7]; Rate 0.2500 kg/ha): 9.0
